Here are results for 15 compounds from patent US20200148646A1, “6-S[…] 7-S[…] ANALOGS AND THE USE THEREOF” (Purdue Pharma, L.P., priority 2013, published 2020).

For one experiment, the target named is human κ opioid receptor (Homo sapiens, UniProt P41145). The experiment is described as follows: κ-opioid receptor [35S]GTPγS functional assay, U-2 OS cells. The format is biochemical. Details: expressed in transfected cells; host or cells: U-2 OS cells (in-house membranes). Particulars: for Emax: U2-OS cells, relative to U69,593. As to the method: Membranes from recombinant HEK-293 cells, CHO or U-2 OS cells expressing the recombinant human K opioid receptor (K) were prepared by lysing cells in ice cold hypotonic buffer (2.5 mM MgCl2, 50 mM HEPES, pH 7.4) (10 mL/10 cm dish) followed by homogenization with a tissue grinder/Teflon pestle. Functional [^35S]GTPγS binding assays were conducted as follows. K opioid receptor membrane solution was prepared by sequentially adding final concentrations of 0.026 μg/μl κ membrane protein (in-house), 10 μg/mL saponin, 3 μM GDP and 0.20 nM [^35S]GTPγS to binding buffer (100 mM NaCl, 10 mM MgCl2, 20 mM HEPES, pH 7.4) on ice. The prepared membrane solution (190 μl/well) was transferred to 96-shallow well polypropylene plates containing 10 μl of 20× concentrated stock solutions of agonist prepared in DMSO. Plates were incubated for 30 min at a temperature of about 25° C. with shaking. Reactions were terminated by rapid filtration onto 96-well Unifilter GF/B filter plates (Perkin Elmer, Shelton, Conn.) using a 96-well tissue harvester (Packard) and followed by three filtration washes with 200 μl ice-cold binding buffer (10 mM NaH2PO4, 10 mM Na2HPO4, pH 7.4). Filter plates were subsequently dried at 50° C. for 2-3 hours. Fifty μl/well scintillation cocktail (Perkin Elmer, Shelton, Conn.) was added and plates were counted in a Packard Top-Count for 1 min/well.
Sequence of human κ opioid receptor (P41145 whole entry): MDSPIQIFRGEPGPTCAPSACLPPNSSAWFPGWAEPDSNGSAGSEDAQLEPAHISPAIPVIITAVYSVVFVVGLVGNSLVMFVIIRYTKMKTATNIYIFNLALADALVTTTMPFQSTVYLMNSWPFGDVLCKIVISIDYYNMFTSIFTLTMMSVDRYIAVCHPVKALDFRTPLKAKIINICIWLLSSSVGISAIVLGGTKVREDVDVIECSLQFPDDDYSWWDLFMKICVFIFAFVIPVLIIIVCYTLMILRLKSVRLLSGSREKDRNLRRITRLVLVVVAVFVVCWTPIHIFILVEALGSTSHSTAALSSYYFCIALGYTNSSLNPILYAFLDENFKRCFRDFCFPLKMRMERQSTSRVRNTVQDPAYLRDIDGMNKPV
κ GTP EC50 is the concentration of a compound providing 50% of the maximal response for the compound at a κ receptor.
κ GTP Emax (%) is the maximal effect elicited by a compound relative to the effect elicited by U69,593.
(§1) In TABLE 2A, activity response of certain Compounds of the Invention at the μ- and κ-opioid receptors using U-2 OS cells was determined as described above for functional assays.
On the technique in general: Binding of GTPγS marks nucleotide exchange on a G protein.

The target in the next experiment is μ-opioid receptor (Homo sapiens, UniProt P35372). As to the kind of experiment: μ-opioid receptor [35S]GTPγS functional assay, U-2 OS cells. The format is biochemical. Details: host or cells: U-2 OS cells. Particulars: for Emax: U2-OS cells, relative to DAMGO. As to the method: [^35S]GTPγS functional assays were conducted using freshly thawed μ-receptor membranes prepared in-house from a cell line expressing recombinant opioid receptor in a HEK-293, CHO or U-2 OS cell background, or purchased from a commercial source (Perkin Elmer, Shelton, Conn.; or DiscovRx, Fremont, Calif.). Assay reactions were prepared by sequentially adding the following reagents to binding buffer (100 mM NaCl, 10 mM MgCl2, 20 mM HEPES, pH 7.4) on ice (final concentrations indicated): membrane protein (0.026 mg/mL), saponin ([…]), GDP ([…]) and [^35S]GTPγS (0.20 nM; Perkin Elmer, Shelton, Conn.). The prepared membrane solution (190 l/well) was transferred to 96-shallow well polypropylene plates containing 10 μl of 20× concentrated stock solutions of the agonist [D-Ala^2, N-methyl-Phe^4 Gly-ol^5]-enkephalin (DAMGO) prepared in dimethyl sulfoxide (DMSO). Plates were incubated for 30 min at about 25° C. with shaking. Reactions were terminated by rapid filtration onto 96-well Unifilter GF/B filter plates (Perkin Elmer, Shelton, Conn.) using a 96-well tissue harvester (Perkin Elmer, Shelton, Conn.) followed by three filtration washes with 200 μl of ice-cold wash buffer (10 mM NaH2PO4, 10 mM Na2HPO4, pH 7.4). Filter plates were subsequently dried at 50° C. for 2-3 hr. BetaScint scintillation cocktail (Perkin Elmer, Shelton, Conn.) was added (50 μl/well) and plates were counted using a Packard Top-Count for 1 min/well. Data were analyzed using the sigmoidal dose-response curve fitting functions in GraphPad PRISM v. 3.0, or an in-house function for non-linear, sigmoidal dose-response curve-fitting.
Sequence of μ-opioid receptor (P35372 whole entry, species assumed): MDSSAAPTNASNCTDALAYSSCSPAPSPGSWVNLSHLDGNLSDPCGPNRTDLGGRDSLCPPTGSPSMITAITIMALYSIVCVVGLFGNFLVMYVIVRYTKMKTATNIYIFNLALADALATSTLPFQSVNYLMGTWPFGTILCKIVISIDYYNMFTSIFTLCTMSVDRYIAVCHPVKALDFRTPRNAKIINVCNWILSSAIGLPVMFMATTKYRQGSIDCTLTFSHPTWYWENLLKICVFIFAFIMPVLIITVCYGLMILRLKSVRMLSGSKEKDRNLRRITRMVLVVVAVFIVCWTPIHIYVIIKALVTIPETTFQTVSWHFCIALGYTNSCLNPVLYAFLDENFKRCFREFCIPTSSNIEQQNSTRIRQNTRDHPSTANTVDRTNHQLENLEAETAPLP
μ GTP EC50 is the concentration of a compound providing 50% of the maximal response for the compound at a μ-opioid receptor.
μ GTP Emax (%) is the maximal effect elicited by a compound relative to the effect elicited by DAMGO, a standard agonist. Generally, the μ GTP Emax (%) value measures the efficacy of a compound to treat or prevent pain or other Conditions.
as §1

For orientation: EC50 means the concentration at which the effect is half-maximal. By Emax is commonly meant the maximal effect, on the per cent scale that the assay sets.

As to `COc1ccc2c(c1)[C@]13CCN(CC4CC4)[C@H](C2)[C@]1(O)C[C@H](OCC(C)C)[C@H](O)C3` [Compound 51, (4bR,6R,7S,8aS,9R)-11-(cyclopropylmethyl)-7-isobutoxy-3-methoxy-5,6,7,8,9,10-hexahydro-8aH-9,4b-(epiminoethano)phenanthrene-6,8a-diol], at human κ opioid receptor, the EC50 came out at 14500 ± 1680 nM and the Emax stood at 86.7 ± 3.18%. Also, on μ-opioid receptor, the EC50 was more than 20000 nM and the Emax was 7%.
For `COc1ccc2c(c1)[C@]13CCN(CC4CC4)[C@H](C2)[C@]1(O)C[C@@H](NCC(C)C)[C@@H](O)C3` [Compound 33, (4bR,6S,7R,8aS,9R)-11-(cyclopropylmethyl)-7-(isobutylamino)-3-methoxy-5,6,7,8,9,10-hexahydro-8aH-9,4b-(epiminoethano)phenanthrene-6,8a-diol] the same measures were 328 ± 22.1 nM, 93.7 ± 1.76%, 503 ± 43.5 nM and 43 ± 3.79%.
For `CC(C)C[C@H]1C[C@@]2(O)[C@H]3Cc4ccc(O)cc4[C@@]2(CCN3CC2CC2)C[C@H]1O` [Compound 67, (4bR,6R,7S,8aS,9R)-11-(cyclopropylmethyl)-7-isobutyl-5,6,7,8,9,10-hexahydro-8aH-9,4b-(epiminoethano)phenanthrene-3,6,8a-triol] the same measures were 55.5 ± 8.5 nM, 89.3 ± 1.67%, more than 20000 nM and 2%.
Take `CC(C)CCC(=O)N[C@H]1C[C@@]2(O)[C@H]3Cc4ccc(O)cc4[C@@]2(CCN3CC2CC2)C[C@H]1O` [Compound 61, N-((4bR,6R,7S,8aS,9R)-11-(cyclopropylmethyl)-3,6,8a-trihydroxy-6,7,8,8a,9,10-hexahydro-5H-9,4b-(epiminoethano)phenanthren-7-yl)-4-methylpentanamide]: on human κ opioid receptor, the response was half-maximal at 15.4 ± 2.43 nM (EC50) and the Emax was found to be 97.7 ± 2.19%. Also, on μ-opioid receptor, the half-maximal effective concentration (EC50) worked out at 61.6 ± 5.41 nM and the Emax is 26.7 ± 0.88%.
The like results for `CC(C)C(=O)N[C@H]1C[C@@]2(O)[C@H]3Cc4ccc(O)cc4[C@@]2(CCN3CC2CC2)C[C@H]1O` [Compound 58, N-((4bR,6R,7S,8aS,9R)-11-(cyclopropylmethyl)-3,6,8a-trihydroxy-6,7,8,8a,9,10-hexahydro-5H-9,4b-(epiminoethano)phenanthren-7-yl)isobutyramide] were, in that order, 38.1 ± 2.2 nM, 101 ± 1.2%, 80.9 ± 15.1 nM and 19.3 ± 1.45%.
The like results for `N=C(N)NCCN[C@H]1CC[C@]23CCN(CC4CC4)[C@H](Cc4ccc(O)cc42)[C@]3(O)C1` [Compound 32, 1-(2-(((4bS,7S,8aS,9R)-11-(cyclopropylmethyl)-3,8a-dihydroxy-6,7,8,8a,9,10-hexahydro-5H-9,4b-(epiminoethano)phenanthren-7-yl)amino)ethyl)guanidine] were, in that order, more than 20000 nM, -1%, more than 20000 nM and 5.33 ± 1.45%.
The like results for `COc1ccc2c(c1)[C@@]13CCC(=O)C[C@@]1(O)[C@@H](C2)N(CC1CC1)CC3` [Compound 31, (4bS,8aS,9R)-11-(cyclopropylmethyl)-8a-hydroxy-3-methoxy-5,6,8,8a,9,10-hexahydro-7H-9,4b-(epiminoethano)phenanthren-7-one] were, in that order, 633 ± 87.1 nM, 108 ± 3.76%, 740 ± 49.5 nM and 57.3 ± 2.73%.
Take `O=C(N[C@H]1C[C@@]2(O)[C@H]3Cc4ccc(O)cc4[C@@]2(CCN3CC2CC2)CC1O)C1CCCCC1` (stereo partly drawn) [Compound 65, N-((4bR,7S,8aS,9R)-11-(cyclopropylmethyl)-3,6,8a-trihydroxy-6,7,8,8a,9,10-hexahydro-5H-9,4b-(epiminoethano)phenanthren-7-yl)cyclohexanecarboxamide]: at human κ opioid receptor, the concentration giving a half-maximal response (EC50) stood at 15.9 ± 2.09 nM and the Emax was determined as 106 ± 1.89%. On μ-opioid receptor, the EC50 worked out at 68.4 ± 13 nM and the Emax came to 26.7 ± 0.67%.
As for `COc1ccc2c(c1)[C@@]13CC[C@H](NCC(C)C)C[C@@]1(O)[C@@H](C2)N(CC1CC1)CC3` [Compound 41, (4bS,7S,8aS,9R)-11-(cyclopropylmethyl)-7-(isobutylamino)-3-methoxy-5,6,7,8,9,10-hexahydro-8aH-9,4b-(epiminoethano)phenanthren-8a-ol], on human κ opioid receptor, the midpoint of the response, the EC50, lay at 41.6 ± 2.25 nM and the Emax worked out at 102 ± 2.19%. On μ-opioid receptor, the concentration for a half-maximal effect (EC50) worked out at 674 ± 63.8 nM and the Emax stood at 74.7 ± 4.67%.
For `CC(C)CC(=O)N[C@H]1C[C@@]2(O)[C@H]3Cc4ccc(O)cc4[C@@]2(CCN3CC2CC2)C[C@H]1O` [Compound 60, N-((4bR,6R,7S,8aS,9R)-11-(cyclopropylmethyl)-3,6,8a-trihydroxy-6,7,8,8a,9,10-hexahydro-5H-9,4b-(epiminoethano)phenanthren-7-yl)-3-methylbutanamide] the same measures were 31.4 ± 3.7 nM, 106 ± 6.06%, 54.7 ± 8.1 nM and 25.3 ± 0.33%.
For `CN[C@@H]1C[C@@]2(O)[C@H]3Cc4ccc(O)cc4[C@@]2(CCN3CC2CC2)C[C@@H]1O` [Compound 35, (4bR,6S,7R,8aS,9R)-11-(cyclopropylmethyl)-7-(methylamino)-5,6,7,8,9,10-hexahydro-8aH-9,4b-(epiminoethano)phenanthrene-3,6,8a-triol] the same measures were 0.2 ± 0.042 nM, 97.3 ± 2.85%, 2.55 ± 0.33 nM and 25.7 ± 0.88%.
For `O=C(O)CN[C@@H]1C[C@@]2(O)[C@H]3Cc4ccc(O)cc4[C@@]2(CCN3CC2CC2)C[C@@H]1O` [Compound 40, ((4bR,6S,7R,8aS,9R)-11-(cyclopropylmethyl)-3,6,8a-trihydroxy-6,7,8,8a,9,10-hexahydro-5H-9,4b-(epiminoethano)phenanthren-7-yl)glycine] the same measures were 7.24 ± 0.65 nM, 43 ± 3.06%, more than 20000 nM and 2%.
As for `COc1ccc2c(c1)[C@@]13CC[C@@H](O)C[C@@]1(O)[C@@H](C2)N(CC1CC1)CC3` [Compound 52, (4bS,7R,8aS,9R)-11-(cyclopropylmethyl)-3-methoxy-5,6,7,8,9,10-hexahydro-8aH-9,4b-(epiminoethano)phenanthrene-7,8a-diol], on human κ opioid receptor, the concentration giving a half-maximal response (EC50) was determined as 1570 ± 97.4 nM and the Emax turned out to be 91.3 ± 0.67%. Further, on μ-opioid receptor, the EC50 is 1260 nM and the Emax was found to be 23.2 ± 4.07%.
The like results for `Oc1ccc2c(c1)[C@]13CCN(CC4CC4)[C@H](C2)[C@]1(O)C[C@H](CC1CCCC1)[C@H](O)C3` [Compound 54, (4bR,6R,7S,8aS,9R)-7-(cyclopentylmethyl)-11-(cyclopropylmethyl)-5,6,7,8,9,10-hexahydro-8aH-9,4b-(epiminoethano)phenanthrene-3,6,8a-triol] were, in that order, 32.1 ± 2.76 nM, 97.7 ± 3.93%, more than 20000 nM and 3%.
The like results for `O=C(N[C@H]1C[C@@]2(O)[C@H]3Cc4ccc(O)cc4[C@@]2(CCN3CC2CC2)C[C@H]1O)C1CC1` [Compound 64, N-((4bR,6R,7S,8aS,9R)-11-(cyclopropylmethyl)-3,6,8a-trihydroxy-6,7,8,8a,9,10-hexahydro-5H-9,4b-(epiminoethano)phenanthren-7-yl)cyclopropanecarboxamide] were, in that order, 48.3 ± 3.1 nM, 93.7 ± 2.33%, 112 ± 19.3 nM and 7.33 ± 0.33%.
